Laboratory results as given in patent US20260125382A1, “COMPOUNDS FOR INHIBITING OR DEGRADING CDK2 AND/OR CDK9 AND MEDICINAL USE THEREOF” (KOREA RESEARCH INSTITUTE OF CHEMICAL TECHNOLOGY, priority 2022, published 2026).
pIC50: −log10 of the molar value.

Columns and labels:
CDK2 = molecular target: T1, CDK2 (Homo sapiens, UniProt P24941); assay: CDK protein degradation activity (Western blotting), CDK2; assay type: cell-based; conditions: MDA-MB-231 cells, 16 hours, Western blot
T1 construct: endogenous in cells; host or cells: MDA-MB-231
In short: (§1)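 CDK2 and CDK9 protein levels measured by Western blot with densitometry, using tubulin as loading reference. Cells were MDA-MB-231, exposed for 16 h to 100 nM, 1 μM or 10 μM compound or to DMSO.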

CDK9 = molecular target: T2, CDK9 (Homo sapiens, UniProt P50750); assay: CDK protein degradation activity (Western blotting), CDK9; assay type: cell-based; conditions: MDA-MB-231 cells, 16 hours, Western blot
T2 construct: endogenous in cells; host or cells: MDA-MB-231
In short: as §1

CDK2/cyclin A = molecular target: T3, CDK2/cyclin A (Homo sapiens, UniProt P24941); assay: CDK protein inhibition, KINOMEscan (Eurofins), CDK2/cyclin A; assay type: binding; conditions: for pIC50: Table 17, unit inferred
T3 construct: purchased Eurofins Scientific

T2 sequence (P50750 whole entry): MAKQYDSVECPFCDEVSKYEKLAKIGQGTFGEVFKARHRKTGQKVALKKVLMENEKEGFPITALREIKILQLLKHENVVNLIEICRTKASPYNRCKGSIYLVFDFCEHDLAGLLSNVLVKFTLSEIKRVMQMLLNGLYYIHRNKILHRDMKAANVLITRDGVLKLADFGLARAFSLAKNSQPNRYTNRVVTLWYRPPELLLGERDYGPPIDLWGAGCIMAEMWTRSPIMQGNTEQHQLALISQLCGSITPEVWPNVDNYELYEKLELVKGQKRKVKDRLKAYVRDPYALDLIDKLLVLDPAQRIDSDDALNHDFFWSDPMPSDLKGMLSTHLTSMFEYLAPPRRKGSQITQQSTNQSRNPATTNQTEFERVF

| Compound | CDK2/cyclin A inhibition (%) (at concentration of 1 μM) (CDK2/cyclin A) | other results |
| --- | --- | --- |
| O=C1CCC(N2C(=O)c3cccc(NCC(=O)N4CCC(CN5CCN(c6ccc(Nc7ncnc8c7ncn8[C@H]7C[C@@H](NC(=O)Cc8ccccc8)C7)cc6)CC5)CC4)c3C2=O)C(=O)N1 (some centres unmarked) [Compound 176, N-((1s,3s)-3-(6-((4-(4-((1-((2-(2,6-dioxopiperidin-3-yl)-1,3-dioxoisoindolin-4-yl)glycyl)piperidin-4-yl)methyl)piperazin-1-yl)phenyl)amino)-9H-purin-9-yl)cyclobutyl)-2-phenylacetamide] |  | Enzyme degradation CDK2 (% remaining) @ 0.1 μM (CDK2): 0/0/0%; Enzyme degradation CDK2 (% remaining) @ 1 μM (CDK2): 0/0/0%; Enzyme degradation CDK2 (% remaining) @ 10 μM (CDK2): 0/0/0%; Enzyme degradation CDK9 (% remaining) @ 0.1 μM (CDK9): 0/0/0%; Enzyme degradation CDK9 (% remaining) @ 1 μM (CDK9): 0/0/0%; Enzyme degradation CDK9 (% remaining) @ 10 μM (CDK9): 0/0/0%; pIC50 (CDK2/cyclin A): 6.36 |
| Cc1cccc(C(=O)NC2CC(n3cnc4c(NC5CCN(C(=O)COCCOCCNC(=O)COc6cccc7c6C(=O)N([C@H]6CCC(=O)NC6=O)C7=O)CC5)ncnc43)C2)n1 (some centres unmarked) [Compound 8, N-((1s,3s)-3-(6-((1-(2-(2-(2-(2-((2-(2,6-dioxopiperidin-3-yl)-1,3-dioxoisoindolin-4-yl)oxy)acetamido)ethoxy)ethoxy)acetyl)piperidin-4-yl)amino)-9H-purin-9-yl)cyclobutyl)-6-methylpicolinamide] | 89% |  |
| Cc1cccc(C(=O)NC2CC(n3cnc4c(NCC5CCN(C(=O)CCCCCNC(=O)COc6ccc7c(c6)C(=O)N([C@@H]6CCC(=O)NC6=O)C7=O)CC5)ncnc43)C2)n1 (some centres unmarked) [Compound 63, N-((1r,3r)-3-(6-(((1-(6-(2-((2-(2,6-dioxopiperidin-3-yl)-1,3-dioxoisoindolin-5-yl)oxy)acetamido)hexanoyl)piperidin-4-yl)methyl)amino)-9H-purin-9-yl)cyclobutyl)-6-methylpicolinamide] | 83% |  |
| Cc1cccc(C(=O)N[C@H]2C[C@H](n3cnc4c(NCC5CCN(CC6CCN(C(=O)CNc7ccc8c(c7)C(=O)N(C7CCC(=O)NC7=O)C8=O)CC6)CC5)ncnc43)C2)n1 (some centres unmarked) [Compound 74, N-((1r,3r)-3-(6-(((1-((1-((2-(2,6-dioxopiperidin-3-yl)-1,3-dioxoisoindolin-5-yl)glycyl)piperidin-4-yl)methyl)piperidin-4-yl)methyl)amino)-9H-purin-9-yl)cyclobutyl)-6-methylpicolinamide] |  | Enzyme degradation CDK2 (% remaining) @ 0.1 μM (CDK2): 30%; Enzyme degradation CDK2 (% remaining) @ 1 μM (CDK2): 40%; Enzyme degradation CDK2 (% remaining) @ 10 μM (CDK2): 50%; Enzyme degradation CDK9 (% remaining) @ 0.1 μM (CDK9): 0/0/0%; Enzyme degradation CDK9 (% remaining) @ 1 μM (CDK9): 0/0/0%; Enzyme degradation CDK9 (% remaining) @ 10 μM (CDK9): 0/0/0%; pIC50 (CDK2/cyclin A): < 5.00 |
| Cc1cccc(C(=O)NC2CC(n3cnc4c(NCC5CCN(C(=O)CCCCCNC(=O)CNc6cccc7c6C(=O)N([C@@H]6CCC(=O)NC6=O)C7=O)CC5)ncnc43)C2)n1 (some centres unmarked) [Compound 2, N-((1r,3r)-3-(6-(((1-(6-(2-((2-(2,6-dioxopiperidin-3-yl)-1,3-dioxoisoindolin-4-yl)amino)acetamido)hexanoyl)piperidin-4-yl)methyl)amino)-9H-purin-9-yl)cyclobutyl)-6-methylpicolinamide] | 84% |  |
| Cc1cccc(C(=O)NC2CC(n3cnc4c(NC5CCN(C(=O)COCCOCCNc6cccc7c6C(=O)N([C@H]6CCC(=O)NC6=O)C7=O)CC5)ncnc43)C2)n1 (some centres unmarked) [Compound 12, N-((1s,3s)-3-(6-((1-(2-(2-(2-((2-(2,6-dioxopiperidin-3-yl)-1,3-dioxoisoindolin-4-yl)amino)ethoxy)ethoxy)acetyl)piperidin-4-yl)amino)-9H-purin-9-yl)cyclobutyl)-6-methylpicolinamide] | 86% |  |
| Cc1cccc(C(=O)NC2CC(n3cnc4c(NC5CCN(C(=O)CCCCCNC(=O)COc6cccc7c6C(=O)N([C@@H]6CCC(=O)NC6=O)C7=O)CC5)ncnc43)C2)n1 (some centres unmarked) [Compound 4, N-((1r,3r)-3-(6-((1-(6-(2-((2-(2,6-dioxopiperidin-3-yl)-1,3-dioxoisoindolin-4-yl)oxy)acetamido)hexanoyl)piperidin-4-yl)amino)-9H-purin-9-yl)cyclobutyl)-6-methylpicolinamide] | 84% |  |
| Cc1cccc(C(=O)NC2CC(n3cnc4c(NC5CCN(C(=O)CCCCCNC(=O)COc6ccc7c(c6)C(=O)N([C@@H]6CCC(=O)NC6=O)C7=O)CC5)ncnc43)C2)n1 (some centres unmarked) [Compound 3, N-((1r,3r)-3-(6-((1-(6-(2-((2-(2,6-dioxopiperidin-3-yl)-1,3-dioxoisoindolin-5-yl)oxy)acetamido)hexanoyl)piperidin-4-yl)amino)-9H-purin-9-yl)cyclobutyl)-6-methylpicolinamide] | 84% |  |
| Cc1cccc(C(=O)NC2CC(n3cnc4c(NC5CCN(C(=O)COCCOCCNC(=O)CNc6ccc7c(c6)C(=O)N([C@H]6CCC(=O)NC6=O)C7=O)CC5)ncnc43)C2)n1 (some centres unmarked) [Compound 9, N-((1s,3s)-3-(6-((1-(2-(2-(2-(2-((2-(2,6-dioxopiperidin-3-yl)-1,3-dioxoisoindolin-5-yl)amino)acetamido)ethoxy)ethoxy)acetyl)piperidin-4-yl)amino)-9H-purin-9-yl)cyclobutyl)-6-methylpicolinamide] | 92% |  |
| Cc1cccc(C(=O)NC2CC(n3cnc4c(NC5CCN(C(=O)CCCCCNc6ccc7c(c6)C(=O)N([C@@H]6CCC(=O)NC6=O)C7=O)CC5)ncnc43)C2)n1 (some centres unmarked) [Compound 5, N-((1r,3r)-3-(6-((1-(6-((2-(2,6-dioxopiperidin-3-yl)-1,3-dioxoisoindolin-5-yl)amino)hexanoyl)piperidin-4-yl)amino)-9H-purin-9-yl)cyclobutyl)-6-methylpicolinamide] | 91% |  |
| Cc1cccc(C(=O)NC2CC(n3cnc4c(NC5CCN(C(=O)CCCCCNc6cccc7c6C(=O)N([C@@H]6CCC(=O)NC6=O)C7=O)CC5)ncnc43)C2)n1 (some centres unmarked) [Compound 6, N-((1r,3r)-3-(6-((1-(6-((2-(2,6-dioxopiperidin-3-yl)-1,3-dioxoisoindolin-4-yl)amino)hexanoyl)piperidin-4-yl)amino)-9H-purin-9-yl)cyclobutyl)-6-methylpicolinamide] | 88% |  |
| Cc1cccc(C(=O)NC2CC(n3cnc4c(NC5CCN(C(=O)COCCOCCNc6ccc7c(c6)C(=O)N([C@H]6CCC(=O)NC6=O)C7=O)CC5)ncnc43)C2)n1 (some centres unmarked) [Compound 11, N-((1s,3s)-3-(6-((1-(2-(2-(2-((2-(2,6-dioxopiperidin-3-yl)-1,3-dioxoisoindolin-5-yl)amino)ethoxy)ethoxy)acetyl)piperidin-4-yl)amino)-9H-purin-9-yl)cyclobutyl)-6-methylpicolinamide] | 78% |  |
| Cc1cccc(C(=O)NC2CC(n3cnc4c(NC5CCN(C(=O)COCCOCCNC(=O)COc6ccc7c(c6)C(=O)N([C@H]6CCC(=O)NC6=O)C7=O)CC5)ncnc43)C2)n1 (some centres unmarked) [Compound 7, N-((1s,3s)-3-(6-((1-(2-(2-(2-(2-((2-(2,6-dioxopiperidin-3-yl)-1,3-dioxoisoindolin-5-yl)oxy)acetamido)ethoxy)ethoxy)acetyl)piperidin-4-yl)amino)-9H-purin-9-yl)cyclobutyl)-6-methylpicolinamide] | 94% |  |
| Cc1cccc(C(=O)NC2CC(n3cnc4c(NC5CCN(C(=O)COCCOCCNC(=O)CNc6cccc7c6C(=O)N([C@H]6CCC(=O)NC6=O)C7=O)CC5)ncnc43)C2)n1 (some centres unmarked) [Compound 10, N-((1s,3s)-3-(6-((1-(2-(2-(2-(2-((2-(2,6-dioxopiperidin-3-yl)-1,3-dioxoisoindolin-4-yl)amino)acetamido)ethoxy)ethoxy)acetyl)piperidin-4-yl)amino)-9H-purin-9-yl)cyclobutyl)-6-methylpicolinamide] | 90% |  |
| Cc1cccc(C(=O)NC2CC(n3cnc4c(NCC5CCN(C(=O)CCCCCNC(=O)CNc6cccc7c6C(=O)N([C@@H]6CCC(=O)NC6=O)C7=O)CC5)ncnc43)C2)n1 (some centres unmarked) [Compound 62, N-((1r,3r)-3-(6-(((1-(6-(2-((2-(2,6-dioxopiperidin-3-yl)-1,3-dioxoisoindolin-4-yl)amino)acetamido)hexanoyl)piperidin-4-yl)methyl)amino)-9H-purin-9-yl)cyclobutyl)-6-methylpicolinamide] | 89% |  |
| Cc1cccc(C(=O)NC2CC(n3cnc4c(NC5CCN(C(=O)CCCCCNC(=O)CNc6cccc7c6C(=O)N([C@@H]6CCC(=O)NC6=O)C7=O)CC5)ncnc43)C2)n1 (some centres unmarked) [Compound 1, N-((1r,3r)-3-(6-((1-(6-(2-((2-(2,6-dioxopiperidin-3-yl)-1,3-dioxoisoindolin-4-yl)amino)acetamido)hexanoyl)piperidin-4-yl)amino)-9H-purin-9-yl)cyclobutyl)-6-methylpicolinamide] | 77% |  |
| Cc1cccc(C(=O)NC2CC(n3cnc4c(NCC5CCN(C(=O)CCCCCNC(=O)COc6cccc7c6C(=O)N([C@@H]6CCC(=O)NC6=O)C7=O)CC5)ncnc43)C2)n1 (some centres unmarked) [Compound 64, N-((1r,3r)-3-(6-(((1-(6-(2-((2-(2,6-dioxopiperidin-3-yl)-1,3-dioxoisoindolin-4-yl)oxy)acetamido)hexanoyl)piperidin-4-yl)methyl)amino)-9H-purin-9-yl)cyclobutyl)-6-methylpicolinamide] | 85% |  |
